Experiments:
SALL4 = SALL4 (Homo sapiens (Human), UniProt Q9UJQ4); assay: SALL4 expression in Tera-1 cells (Western blot); assay type: cell-based; conditions: human Tera-1 cells; 0.01, 0.1, 1 μM; relative to GAPDH
Description: (§1) For Western blot analysis, total proteins were extracted using RIPA buffer (ThermoFisher Scientific, Waltham, MA) containing Halt Protease Inhibitor Cocktail (ThermoFisher Scientific). […] After incubation at 4° C. overnight, the following HRP conjugated secondary antibodies were used: (i) goat anti-rabbit IgG (ThermoFisher Scientific) for ikaros and aiolos, and (ii) goat anti-mouse IgG (ThermoFisher Scientific) for SALL4 and GAPDH. […] Antigen-antibody complexes were detected using enhanced chemiluminescence (Thermo, iBright CL1500).
(§2) Specifically, MM1.S cells were obtained from ATCC (Manassas, VA, USA), grown in RPMI media supplemented with 10% FBS, penicillin 100 U/mL, and streptomycin […], and maintained at 37° C. and 5% CO2.
as §1, with “MA, USA)” for “MA)”, “Scientific). Thereafter, the proteins were separated by gel electrophoresis and then transferred to polyvinylidene difluoride (PVDF) membranes (ThermoFisher Scientific), as described previously.” for “Scientific).”, “HRP-conjugated” for “HRP conjugated”, “Ikaros” for “ikaros”, “Aiolos,” for “aiolos,”, “(ThermoFisher Scientific,” for “(Thermo,”

Aiolos = Aiolos (Homo sapiens (Human), UniProt Q9UKT9); assay: Aiolos degradation in MM1.S cells (Western blot); assay type: cell-based; conditions: 1 μM, relative to GAPDH
Description: as §1, §2
(§3) For Western blot analysis, total proteins were extracted using RIPA buffer (ThermoFisher Scientific, Waltham, MA, USA) containing Halt Protease Inhibitor Cocktail (ThermoFisher Scientific). Thereafter, the proteins were separated by gel electrophoresis and then transferred to polyvinylidene difluoride (PVDF) membranes (ThermoFisher Scientific), as described previously. […] Antigen-antibody complexes were detected using enhanced chemiluminescence (ThermoFisher Scientific, iBright CL1500).

Ikaros = Ikaros (Homo sapiens (Human), UniProt Q13422); assay: Ikaros degradation in MM1.S cells (Western blot); assay type: cell-based; conditions: 1 μM, relative to GAPDH
Description: as §1, §2, §3

[1] = target: cereblon (CRBN/DDB1-CUL4A-Rbx1 complex) / BRD3 (Homo sapiens (Human), UniProt Q96SW2); assay: Cereblon/BRD3 binding assay (AlphaScreen / FRET)
cereblon (CRBN/DDB1-CUL4A-Rbx1 complex) / BRD3, sequence (Q96SW2 whole entry): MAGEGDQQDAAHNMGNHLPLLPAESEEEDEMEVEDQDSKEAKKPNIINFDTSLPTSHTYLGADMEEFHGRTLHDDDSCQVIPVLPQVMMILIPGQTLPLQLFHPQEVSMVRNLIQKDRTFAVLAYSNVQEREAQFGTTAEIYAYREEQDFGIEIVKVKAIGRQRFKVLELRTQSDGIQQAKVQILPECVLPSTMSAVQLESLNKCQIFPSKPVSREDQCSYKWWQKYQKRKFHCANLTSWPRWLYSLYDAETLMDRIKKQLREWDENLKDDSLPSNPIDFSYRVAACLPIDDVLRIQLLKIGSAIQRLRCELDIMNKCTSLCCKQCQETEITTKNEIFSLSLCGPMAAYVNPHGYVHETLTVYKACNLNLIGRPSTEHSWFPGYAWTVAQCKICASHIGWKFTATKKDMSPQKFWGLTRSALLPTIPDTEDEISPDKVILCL
cereblon (CRBN/DDB1-CUL4A-Rbx1 complex) / BRD3, sequence (Q16531 whole entry partner): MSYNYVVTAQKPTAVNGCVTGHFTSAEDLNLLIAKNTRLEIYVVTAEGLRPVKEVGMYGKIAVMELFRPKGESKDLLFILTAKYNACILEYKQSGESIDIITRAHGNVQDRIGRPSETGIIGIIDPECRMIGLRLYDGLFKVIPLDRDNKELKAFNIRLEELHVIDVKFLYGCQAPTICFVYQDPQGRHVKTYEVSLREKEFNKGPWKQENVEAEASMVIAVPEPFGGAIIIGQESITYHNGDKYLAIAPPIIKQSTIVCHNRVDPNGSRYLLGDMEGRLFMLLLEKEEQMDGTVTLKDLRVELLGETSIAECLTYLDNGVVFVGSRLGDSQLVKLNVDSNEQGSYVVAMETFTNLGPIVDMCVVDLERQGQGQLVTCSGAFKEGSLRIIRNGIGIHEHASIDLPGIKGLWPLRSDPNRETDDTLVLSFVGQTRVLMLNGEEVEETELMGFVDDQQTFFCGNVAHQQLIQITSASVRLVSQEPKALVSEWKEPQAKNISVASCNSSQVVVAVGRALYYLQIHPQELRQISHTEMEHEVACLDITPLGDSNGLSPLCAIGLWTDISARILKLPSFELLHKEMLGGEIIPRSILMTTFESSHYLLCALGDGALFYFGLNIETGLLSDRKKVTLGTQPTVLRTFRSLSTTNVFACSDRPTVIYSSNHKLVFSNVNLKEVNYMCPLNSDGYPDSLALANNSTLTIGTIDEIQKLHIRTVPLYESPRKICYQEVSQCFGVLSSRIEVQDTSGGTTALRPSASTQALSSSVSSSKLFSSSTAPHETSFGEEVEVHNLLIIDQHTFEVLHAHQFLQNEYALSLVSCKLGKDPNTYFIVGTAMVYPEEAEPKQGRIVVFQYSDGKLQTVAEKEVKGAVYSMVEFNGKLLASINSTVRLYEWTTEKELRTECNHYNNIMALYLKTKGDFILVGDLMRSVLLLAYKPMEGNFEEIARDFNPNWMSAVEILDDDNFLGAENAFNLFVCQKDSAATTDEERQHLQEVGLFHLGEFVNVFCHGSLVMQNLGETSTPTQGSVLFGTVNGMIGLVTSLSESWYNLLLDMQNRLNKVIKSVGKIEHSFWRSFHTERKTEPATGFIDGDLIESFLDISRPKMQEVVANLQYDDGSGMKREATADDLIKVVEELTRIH
cereblon (CRBN/DDB1-CUL4A-Rbx1 complex) / BRD3, sequence (Q13619 whole entry partner): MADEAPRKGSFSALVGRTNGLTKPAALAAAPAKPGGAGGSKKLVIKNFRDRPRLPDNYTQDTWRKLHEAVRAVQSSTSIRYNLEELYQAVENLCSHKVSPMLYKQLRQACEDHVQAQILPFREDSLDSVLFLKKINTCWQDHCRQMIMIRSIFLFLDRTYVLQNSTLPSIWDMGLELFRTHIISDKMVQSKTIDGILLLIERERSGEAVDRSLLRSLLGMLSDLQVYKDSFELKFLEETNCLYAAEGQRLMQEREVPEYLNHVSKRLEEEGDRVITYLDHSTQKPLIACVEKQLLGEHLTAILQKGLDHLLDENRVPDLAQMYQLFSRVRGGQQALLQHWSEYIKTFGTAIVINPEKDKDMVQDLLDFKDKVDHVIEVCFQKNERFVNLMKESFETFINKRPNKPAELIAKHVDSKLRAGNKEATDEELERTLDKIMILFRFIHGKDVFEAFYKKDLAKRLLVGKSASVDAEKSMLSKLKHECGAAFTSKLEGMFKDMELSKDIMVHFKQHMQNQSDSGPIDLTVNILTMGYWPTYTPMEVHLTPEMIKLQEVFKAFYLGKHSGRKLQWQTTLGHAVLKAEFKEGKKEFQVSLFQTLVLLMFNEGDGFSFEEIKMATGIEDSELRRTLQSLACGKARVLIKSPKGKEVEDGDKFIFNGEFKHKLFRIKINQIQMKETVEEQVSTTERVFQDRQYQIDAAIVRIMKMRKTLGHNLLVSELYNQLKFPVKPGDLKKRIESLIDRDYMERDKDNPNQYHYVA
cereblon (CRBN/DDB1-CUL4A-Rbx1 complex) / BRD3, sequence (P62877 whole entry partner): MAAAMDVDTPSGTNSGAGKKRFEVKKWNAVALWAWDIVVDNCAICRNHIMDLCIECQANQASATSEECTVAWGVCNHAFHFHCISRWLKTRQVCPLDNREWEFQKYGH
Description: After 30 min of incubation with shaking at room temperature, AlphaLISA anti-FLAG Acceptor and Alpha Glutathione Donor beads (PerkinElmer) were sequentially added and then incubated for 1 hr at room temperature for each of the added chemicals. Alpha counts were thereafter read on a Synergy Neo2 (BioTek) for the analysis. Relative activity or inhibition was calculated as the highest value, which was set to 100%, and the lowest value was set to 0% after subtraction of the “blank value” from all readings.
After 30 min of incubation with shaking at room temperature, AlphaLISA anti-FLAG Acceptor and Alpha Glutathione Donor beads (PerkinElmer) were sequentially added and then incubated for 1 h at room temperature for each of the added chemicals. Alpha counts were thereafter read on a Synergy Neo2 (BioTek) for the analysis. The relative activity of the alpha signal was calculated after subtraction of the “blank value” from all readings, and the value of the vehicle group was then set as 100%.

CCI-induced TBI mice = assay: CCI mouse model of TBI: DigiGait gait analysis; assay type: in vivo
Description: In vivo model of TBI: Mice were anesthetized with 2.5% tribromoethanol (Avertin: 250 mg/kg; Sigma, St. Louis, MO, USA) and placed in a stereotaxic frame (Kopf Instruments, Tujunga, CA, USA). A 4 mm craniotomy was performed using sterile procedures; the craniotomy point was selected midway between the lambda and bregma sutures and laterally midway between the central suture and the temporalis muscle. The skull fragment was then carefully removed without disruption of the underlying dura. Prior to injury induction, the tip of the impactor was angled and kept perpendicular to the exposed cortical surface. The mouse CCI instrument consisted of an electromagnetic impactor, Impact One (Leica Biosystems Inc., Buffalo Grove, IL, USA) that allows independent alteration of injury severity by controlling contact velocity and the level of cortical deformation. In these experiments, the contact velocity was set at 5.0 m/sec, the dwell time was set at 0.2 s and the deformation depth was set at 2 mm to produce a moderate TBI. The injury site was allowed to dry prior to suturing the wound. During surgery and recovery, the body temperature of the animals was maintained at 36-37° C. by using a heating pad. […] Mice were randomized following CCI to treatment with either of two doses of TFBP (16.25 mg/kg and 32.5 mg/kg, i.p.) or saline, and were dosed at 1 and 24 hr after the injury.
Behavioral assessment for motor functions and coordination: Behavioral tests were performed 1 week and 2 weeks after injury, to assess changes in motor functions and coordination. All tests were performed during the animals' light phase; cages were transported to testing rooms at least 30 min prior to testing.
Gait analysis: For the gait analysis, mice were tested on a fixed-speed treadmill apparatus (DigiGait; Mouse Specifics). Mice were habituated to the apparatus for 1 min, and then given a 1-min run at 5 cm/s. Following a 1-min rest, the treadmill speed was increased to 15 cm/s. Video was collected at high speed from a ventrally placed camera, and 3-5 s of representative gait video was selected by an experienced but blinded user for automated analysis.
In Vivo Model of TBI: TBI studies were conducted in 8-week-old male C57/BL6 mice (25-30 g; n=20), Jackson Laboratory, Bar Harbor, Maine USA. Mice were randomly assigned to four groups prior surgery, CMC+Sham, CMC+TBI, compound 30 (Low dose (LD), 14.78 mg/kg, prepared in 1% CMC in PBS)+TBI, compound 30 (High dose (HD), 29.57 mg/kg)+TBI, and evaluated the effects of compound 30 on TBI. Mice were assessed for gait function and motor coordination, balance function. Animals were subsequently evaluated for cellular changes using histological and immunohistochemistry staining. […]

[2] = test system: LPS-induced nitrite in RAW 264.7 cells; assay: LPS-induced nitrite production in RAW 264.7 cells (Griess reagent / fluorometric kit); assay type: cell-based, mouse; conditions: LPS-challenged RAW 264.7 cells, percentage of vehicle control value (control = 100%), mean ± S.E.M., n = 3
Description: Nitrite ion detection in drug treated […] cell culture media: To measure the levels of nitrite ion NO2—) the Griess Reagent System (Promega, Madison, WI, Cat #G2930) was utilized. The protocol followed was that recommended by the manufacturer. In brief a NO2— ion standard curve was prepared in culture media of the same composition to that used for the cell culture study. The concentration range of the standard curve was from 1.5 µM to 100 µM. Equal volumes (50 μL) of standards and unknown samples were added to clear 96 well plates in duplicate. Then 50 μL of sulfanilamide solution was added to each well and the plate was covered and incubated in the dark for 10 min. After the incubation period 50 μL of N-1-napthylethylenediamine dihydrochloride solution was added to each well and the plate was incubated in dark for a further 10 min. After this incubation, the plate was read at 550 nm on a SPECTRAmax PLUS plate reader and the absorbances were used to generate a NO2— standard curve and the NO2— ion levels of the unknown samples are determined using SoftMax Pro V5, Molecular Devices.
Most neurons are highly vulnerable to RNS and ROS. Nitric oxide (NO) is one of RNSs, which is very short lived and cannot be readily measured. However, nitrite is a stable end product of nitric oxide metabolism. Therefore, nitrite acts as a surrogate measure of NO. The Griess Reagent System (Promega Corporation, Madison, WI) can be applied to measure nitrite levels in culture media following the manufacturer's protocol, and this system was used in the present study as it is a more sensitive assay compared to quantifying actions on TNF-α by ELISA assay. […] This challenge induces high level of TNF-α protein accompanied by a robust generation of nitrite.
(§4) Cells were propagated as described by ATCC guidelines.

[3] = Cytotoxicity in the anti-SARS-CoV-2 evaluation (FIG. 6); assay type: cell-based; conditions: 25 μM
RAW 264.7 cells = assay: Cell viability of drug treated RAW 264.7 cells (CellTiter 96 AQueous One, MTS); conditions: RAW 264.7 cells, percentage of vehicle control value, mean ± S.E.M., n = 3
Description: Assessments of drug anti-TNF-α and nitric oxide generation in RAW 264.7 cells: RAW 264.7 cells were purchased from ATCC Manassas, VA, USA). The cells were grown in DMEM media (Invitrogen, DMEM, high glucose, GlutaMAX Supplement, pyruvate, #10569-010) supplemented with 10% FBS (Invitrogen, Fetal Bovine Serum, qualified, heat inactivated, #16140-071) with penicillin and streptomycin (Invitrogen, Penicillin-Streptomycin (10,000 U/mL), #15140-122) and were maintained at 37 C and 5% CO2. The cells were grown to 75%-85% confluence on 10 cm plates (corning-Fal-con, #353003) following the protocol described by ATTC. to assess for drug effects on LPS-induced markers of inflammation, namely TNF-α protein and nitrite ion levels (NO2, a stable end-product of nitric oxide metabolism) cells were seeded into 24 well (VWR, #10062-896) at a density of 200×10^3 cells per well. On each plate there was one blank well where no cells were added yet culture media in the well was treated similarly to wells with cells (n=1). The blank well media was used for background subtraction for various downstream assays. twenty-four hours after seeding the plate the seeding media was replaced with fresh media. Two hours after this the cells were exposed to a range of concentrations of drug test-compound(s) dissolved in 100% tissue culture grade dimethyl sjloxide (DMSO, SIGMA #D2650). Drug stocks were prepared in a 200 times more concentrated stock in DMSO. The final concentration of DMSO added to the cells was 0.5%. The effects of each concentration of drug were assessed in 4 wells per concentration in the 24 well plate (n=3 #-4). On each plate one set of wells were assigned as drug-vehicle control (i.e. DMSO), one test compound was assessed on one 24 well plate. […] One hour after the drugs were added the cells were challenged with lipopolysaccharide (LPS, SIGMA, serotype 055:B5) at a final concentration of 60 ng/ml. Twenty to twenty-four hours after the cells were challenged with LPS the culture media was collected and utilized for the measurement of markers of inflammation.
Cellular viability assessment of drug treated RAW 264.7 cells: RAW 264.7 cell viability was determined by use of the CellTiter 96 AQueous One Solution Cell Proliferation Assay (Promega, Madison, WI). Changes in cellular health status were determined by use of indirect measures related to the formation of a colored tetrazolium dye product that can be measured spectrophotometrically at 490 nm. An increase in absorbance at 490 nm is indicative of an increase in numbers of healthy cells; similarly a reduction in absorbance is indicative of a reduction of healthy cells. After the culture media was harvested for use in TNF-α and NO2— ion assays, the media was replaced with 0.5 mL of fresh media plus 100 μL of the cell viability reaction mixture. After a 20-30 min incubation at 37° C. with 5% CO2 the absorbance at 490 nm was obtained using an infinite M200 PRO plate reader (TECAN, USA).
Statistical analyses for RAW-derived assays: Data are expressed as a percentage change from the DMSO-vehicle control measurements. Measurements are expressed as mean±standard errors, where the n number represents the number of wells in a 24 well plate. Due to the presence of one blank control well on each plate, for some drug concentrations the n number is 3 # and not 4. Statistical comparisons were undertaken by use of a One-Way ANOVA with appropriate Bonferroni corrections for multiple comparisons, as required (GraphPad InStat Version 3.05). P values of <0.05 are considered to be of statistical significance.
RAW 264.7 cell culture: RAW 264.7 mouse cells were purchased from ATCC (Manassas, VA, USA) and grown in DMEM media supplemented with 10% FCS, penicillin 100 U/ml and streptomycin 100 μg/ml (ThermoFisher Scientific, Asheville, NC, USA). The cells were maintained at 37° C. and 5% CO2.

SARS-CoV-2 = assay: Anti-SARS-CoV-2 activity (FIG. 6); assay type: cell-based
TNF-α = assay: LPS-induced TNF-α production in RAW 264.7 cells (ELISA); assay type: cell-based, mouse; conditions: LPS-challenged RAW 264.7 cells, percentage of vehicle control value (control = 100%), mean ± S.E.M., n = 3
Description: Enzyme-linked immunosorbent assay for TNF-α protein: Media TNF-α levels were measured by use of the Biolegend ELISA MAX Set Delux ELISA (#430904). The protocol used was that recommended by the manufacturer. In brief, a day prior to performing the assay, a 96 well plate was coated with a capture antibody directed against TNF-α. The following day the assay plate was washed and blocked with the kit blocking agent for 1 h while being mixed on a plate shaker at 200 rpm (all incubations were mixed at 200 rpm unless stated otherwise). A TNF-α protein standard curve was prepared in the assay diluent following the kit instructions and unknown media samples were likewise diluted in the same assay diluent. After blocking, the plate was washed and then both the standards and unknown media samples were added to the plate in duplicate. The standards and unknown samples were incubated for 2 h. After the incubation, the plate was washed and then the biotin labeled detection antibody was added to each well and incubated for a further 1 h. After this incubation, the avidin-HRP conjugate complex was added to each well and incubated for 30 min. The plate was washed and the chromogenic substrate 3,3′,5,5′-tetramethylbenzidine solution was added to each well. At this point the plate was covered and incubated in the dark for 15 min, with no mixing. After 15 min the chromogenic reaction was stopped by the addition of 2 N H2SO4 and the absorbance was read at 450 nm and for background subtractions at 570 nm, on a SPECTRAmax PLUS plate reader. The absorbances were used to generate a TNF-α a protein standard curve and the protein levels in the unknown samples were determined using SoftMax Pro V5, Molecular Devices.
as §4

Molecule: 4-amino-7-fluoro-2-(2-oxo-6-thioxopiperidin-3-yl)-3-thioxoisoindolin-1-one [Compound 30]
- SALL4 levels (SALL4): no significant effect
- Aiolos levels (Aiolos): no significant effect
- Ikaros levels (Ikaros): no significant effect
- IC50 ([1]; Example 6, FIG. 28A): 2660 nM
- cereblon binding (in words) ([1]; cereblon/BRD3 binding FRET assay): potently bind to cereblon
- gait % of brake phase (CCI-induced TBI mice; high dose 29.57 mg/kg): impairment of brake phase was ameliorated
- gait propel time and % of propel phase (CCI-induced TBI mice; high dose 29.57 mg/kg): significantly mitigate propel time and % of propel phase
- gait brake time (CCI-induced TBI mice; low dose 14.78 mg/kg, 1 and 2 weeks after TBI): significantly mitigated the deficit of brake time

Molecule: C[C@@H]1[C@@H](N2C(=O)c3c(F)ccc(F)c3C2=O)C[C@H]2C[C@@H]1C2(C)C [Compound 18, 4,7-Difluoro-2-((1S,2S,3S,5R)-2,6,6-trimethylbicyclo[3.1.1]heptan-3-yl) isoindoline-1,3-dione]
- nitrite level, % of vehicle control ([2]; 1 μM): 96 ± 4%
- nitrite level, % of vehicle control ([2]; 10 μM): 71 ± 4%
- cytotoxicity [3]: preliminarily acceptable cytotoxicity
- Cell Viability % Δ (RAW 264.7 cells; 1 μM): 102 ± 4%
- Cell Viability % Δ (RAW 264.7 cells; 10 μM): 76 ± 5%
- SARS-CoV-2 inhibitory activity (SARS-CoV-2): potent SARS-CoV-2 inhibitory activity
- TNF-α % Δ (TNF-α; 1 μM): 101 ± 5%
- TNF-α % Δ (TNF-α; 10 μM): 89 ± 5%
